{
  "source": "ChEMBL document CHEMBL1201861",
  "about": "“Genomics of Drug Sensitity in Cancer screening data, Wellcome Trust Sanger Institute”",
  "experiment_in_all_cases": "cells",
  "details_in_all_cases": "Homo sapiens",
  "key": {"[1]": {"test_system": "UACC-257", "assay_type": "functional, cell-based", "description": "SANGER: Inhibition of human UACC-257 cell growth in a cell viability assay."}, "[2]": {"test_system": "HT", "assay_type": "functional, cell-based", "description": "SANGER: Inhibition of human HT cell growth in a cell viability assay."}, "[3]": {"test_system": "LB831-BLC", "assay_type": "functional, cell-based", "description": "SANGER: Inhibition of human LB831-BLC cell growth in a cell viability assay."}, "[4]": {"test_system": "ETK-1", "assay_type": "functional, cell-based", "description": "SANGER: Inhibition of human ETK-1 cell growth in a cell viability assay."}, "[5]": {"test_system": "GT3TKB", "assay_type": "functional, cell-based", "description": "SANGER: Inhibition of human GT3TKB cell growth in a cell viability assay."}, "[6]": {"test_system": "CCRF-CEM", "assay_type": "functional, cell-based", "description": "SANGER: Inhibition of human CCRF-CEM cell growth in a cell viability assay."}, "[7]": {"test_system": "MMAC-SF", "assay_type": "functional, cell-based", "description": "SANGER: Inhibition of human MMAC-SF cell growth in a cell viability assay."}, "[8]": {"test_system": "NB69", "assay_type": "functional, cell-based", "description": "SANGER: Inhibition of human NB69 cell growth in a cell viability assay."}, "[9]": {"test_system": "RPMI-8866", "assay_type": "functional, cell-based", "description": "SANGER: Inhibition of human RPMI-8866 cell growth in a cell viability assay."}, "[10]": {"test_system": "LS-411N", "assay_type": "functional, cell-based"}, "[11]": {"test_system": "ML-2", "assay_type": "functional, cell-based", "description": "SANGER: Inhibition of human ML-2 cell growth in a cell viability assay."}, "[12]": {"test_system": "ONS-76", "assay_type": "functional, cell-based", "description": "SANGER: Inhibition of human ONS-76 cell growth in a cell viability assay."}, "[13]": {"test_system": "A101D", "assay_type": "functional, cell-based", "description": "SANGER: Inhibition of human A101D cell growth in a cell viability assay."}, "[14]": {"test_system": "DMS-114", "assay_type": "functional, cell-based"}, "[15]": {"test_system": "JVM-3", "assay_type": "functional, cell-based", "description": "SANGER: Inhibition of human JVM-3 cell growth in a cell viability assay."}, "[16]": {"test_system": "ES1", "assay_type": "functional, cell-based", "description": "SANGER: Inhibition of human ES1 cell growth in a cell viability assay."}, "[17]": {"test_system": "SHP77", "assay_type": "functional, cell-based, SHP-77", "description": "SANGER: Inhibition of human SHP-77 cell growth in a cell viability assay."}, "[18]": {"test_system": "NCI-H1395", "assay_type": "functional, cell-based", "description": "SANGER: Inhibition of human NCI-H1395 cell growth in a cell viability assay."}, "[19]": {"test_system": "A388", "assay_type": "functional, cell-based", "description": "SANGER: Inhibition of human A388 cell growth in a cell viability assay."}, "[20]": {"test_system": "LOX IMVI", "assay_type": "functional, cell-based", "description": "SANGER: Inhibition of human LOXIMVI cell growth in a cell viability assay."}, "[21]": {"test_system": "DOHH-2", "assay_type": "functional, cell-based", "description": "SANGER: Inhibition of human DOHH-2 cell growth in a cell viability assay."}, "[22]": {"test_system": "KNS-81-FD", "assay_type": "functional, cell-based", "description": "SANGER: Inhibition of human KNS-81-FD cell growth in a cell viability assay."}, "[23]": {"test_system": "C2BBe1", "assay_type": "functional, cell-based", "description": "SANGER: Inhibition of human C2BBe1 cell growth in a cell viability assay."}, "[24]": {"test_system": "MFH-ino", "assay_type": "functional, cell-based", "description": "SANGER: Inhibition of human MFH-ino cell growth in a cell viability assay."}, "[25]": {"test_system": "ACN", "assay_type": "functional, cell-based", "description": "SANGER: Inhibition of human ACN cell growth in a cell viability assay."}, "[26]": {"test_system": "K562", "assay_type": "functional, cell-based", "description": "SANGER: Inhibition of human K-562 cell growth in a cell viability assay."}, "[27]": {"test_system": "KLE", "assay_type": "functional, cell-based", "description": "SANGER: Inhibition of human KLE cell growth in a cell viability assay."}, "[28]": {"test_system": "COLO-668", "assay_type": "functional, cell-based", "description": "SANGER: Inhibition of human COLO-668 cell growth in a cell viability assay."}, "[29]": {"test_system": "SF-126", "assay_type": "functional, cell-based", "description": "SANGER: Inhibition of human SF126 cell growth in a cell viability assay."}, "[30]": {"test_system": "SK-PN-DW", "assay_type": "functional, cell-based", "description": "SANGER: Inhibition of human SK-PN-DW cell growth in a cell viability assay."}, "[31]": {"test_system": "ES4", "assay_type": "functional, cell-based", "description": "SANGER: Inhibition of human ES4 cell growth in a cell viability assay."}, "[32]": {"test_system": "NB5", "assay_type": "functional, cell-based", "description": "SANGER: Inhibition of human NB5 cell growth in a cell viability assay."}, "[33]": {"test_system": "TE-6", "assay_type": "functional, cell-based", "description": "SANGER: Inhibition of human TE-6 cell growth in a cell viability assay."}, "[34]": {"test_system": "BB65-RCC", "assay_type": "functional, cell-based", "description": "SANGER: Inhibition of human BB65-RCC cell growth in a cell viability assay."}, "[35]": {"test_system": "SNB-75", "assay_type": "functional, cell-based", "description": "SANGER: Inhibition of human SNB75 cell growth in a cell viability assay."}, "[36]": {"test_system": "LXF-289 cell line", "assay_type": "functional, cell-based", "description": "SANGER: Inhibition of human LXF-289 cell growth in a cell viability assay."}, "[37]": {"test_system": "COLO-824", "assay_type": "functional, cell-based", "description": "SANGER: Inhibition of human COLO-824 cell growth in a cell viability assay."}, "[38]": {"test_system": "DU-4475", "assay_type": "functional, cell-based", "description": "SANGER: Inhibition of human DU-4475 cell growth in a cell viability assay."}, "[39]": {"test_system": "TGBC24TKB", "assay_type": "functional, cell-based", "description": "SANGER: Inhibition of human TGBC24TKB cell growth in a cell viability assay."}, "[40]": {"test_system": "L-428", "assay_type": "functional, cell-based", "description": "SANGER: Inhibition of human L-428 cell growth in a cell viability assay."}, "[41]": {"test_system": "OCI-AML2", "assay_type": "functional, cell-based", "description": "SANGER: Inhibition of human OCI-AML2 cell growth in a cell viability assay."}, "[42]": {"test_system": "SW 954", "assay_type": "functional, cell-based", "description": "SANGER: Inhibition of human SW954 cell growth in a cell viability assay."}, "[43]": {"test_system": "SNU-C2B", "assay_type": "functional, cell-based", "description": "SANGER: Inhibition of human SNU-C2B cell growth in a cell viability assay."}, "[44]": {"test_system": "LB1047-RCC", "assay_type": "functional, cell-based", "description": "SANGER: Inhibition of human LB1047-RCC cell growth in a cell viability assay."}, "[45]": {"test_system": "NB6", "assay_type": "functional, cell-based", "description": "SANGER: Inhibition of human NB6 cell growth in a cell viability assay."}, "[46]": {"test_system": "KM-H2", "assay_type": "functional, cell-based", "description": "SANGER: Inhibition of human KM-H2 cell growth in a cell viability assay."}, "[47]": {"test_system": "HCE-T", "assay_type": "functional, cell-based", "description": "SANGER: Inhibition of human HCE-T cell growth in a cell viability assay."}, "[48]": {"test_system": "697", "assay_type": "functional, cell-based", "description": "SANGER: Inhibition of human 697 cell growth in a cell viability assay."}, "[49]": {"test_system": "COLO-829", "assay_type": "functional, cell-based", "description": "SANGER: Inhibition of human COLO-829 cell growth in a cell viability assay."}, "[50]": {"test_system": "KM12", "assay_type": "functional, cell-based", "description": "SANGER: Inhibition of human KM12 cell growth in a cell viability assay."}, "[51]": {"test_system": "QIMR-WIL", "assay_type": "functional, cell-based", "description": "SANGER: Inhibition of human QIMR-WIL cell growth in a cell viability assay."}, "[52]": {"test_system": "IA-LM", "assay_type": "functional, cell-based", "description": "SANGER: Inhibition of human IA-LM cell growth in a cell viability assay."}, "[53]": {"test_system": "TE-10", "assay_type": "functional, cell-based", "description": "SANGER: Inhibition of human TE-10 cell growth in a cell viability assay."}, "[54]": {"test_system": "GI-1", "assay_type": "functional, cell-based", "description": "SANGER: Inhibition of human GI-1 cell growth in a cell viability assay."}, "[55]": {"test_system": "ES3", "assay_type": "functional, cell-based", "description": "SANGER: Inhibition of human ES3 cell growth in a cell viability assay."}, "[56]": {"test_system": "HuTu80", "assay_type": "functional, cell-based, HUTU-80", "description": "SANGER: Inhibition of human HUTU-80 cell growth in a cell viability assay."}, "[57]": {"test_system": "U-87 MG", "assay_type": "functional, cell-based, U-87MG ATCC", "description": "SANGER: Inhibition of human U-87-MG cell growth in a cell viability assay."}, "[58]": {"test_system": "BB30-HNC", "assay_type": "functional, cell-based", "description": "SANGER: Inhibition of human BB30-HNC cell growth in a cell viability assay."}, "[59]": {"test_system": "HCE-4", "assay_type": "functional, cell-based", "description": "SANGER: Inhibition of human HCE-4 cell growth in a cell viability assay."}, "[60]": {"test_system": "LS-1034", "assay_type": "functional, cell-based", "description": "SANGER: Inhibition of human LS-1034 cell growth in a cell viability assay."}, "[61]": {"test_system": "Ramos-2G6-4C10", "assay_type": "functional, cell-based", "description": "SANGER: Inhibition of human Ramos-2G6-4C10 cell growth in a cell viability assay."}, "[62]": {"test_system": "TK-10", "assay_type": "functional, cell-based", "description": "SANGER: Inhibition of human TK10 cell growth in a cell viability assay."}, "[63]": {"test_system": "A4-Fuk", "assay_type": "functional, cell-based", "description": "SANGER: Inhibition of human A4-Fuk cell growth in a cell viability assay."}, "[64]": {"test_system": "MHH-PREB-1", "assay_type": "functional, cell-based", "description": "SANGER: Inhibition of human MHH-PREB-1 cell growth in a cell viability assay."}, "[65]": {"test_system": "NCI-H226", "assay_type": "functional, cell-based", "description": "SANGER: Inhibition of human NCI-H226 cell growth in a cell viability assay."}},
  "data": [
    {"smiles": "C/C=C(/C)C(=O)O[C@H]1C(C)=C2[C@H]([C@@H]1OC(=O)CCCCCCC)[C@@](C)(OC(C)=O)C[C@H](OC(=O)CCC)[C@@]1(O)[C@H]2OC(=O)[C@@]1(C)O", "note": "[THAPSIGARGIN]", "values": [
      {"measurement": "IC50", "setting": "[1]", "result": 115, "unit": "nM"},
      {"measurement": "IC50", "setting": "[2]", "result": 5.7, "unit": "nM"},
      {"measurement": "IC50", "setting": "[3]", "result": 3.94, "unit": "nM"},
      {"measurement": "IC50", "setting": "[4]", "result": "< 2", "unit": "nM"},
      {"measurement": "IC50", "setting": "[5]", "result": 12.2, "unit": "nM"},
      {"measurement": "IC50", "setting": "[6]", "result": 30.9, "unit": "nM"},
      {"measurement": "IC50", "setting": "[7]", "result": 28.3, "unit": "nM"},
      {"measurement": "IC50", "setting": "[8]", "result": 0.873, "unit": "nM"},
      {"measurement": "IC50", "setting": "[9]", "result": "> 512", "unit": "nM"},
      {"measurement": "IC50", "setting": "[10]", "result": 13.6, "unit": "nM"},
      {"measurement": "IC50", "setting": "[11]", "result": 53.9, "unit": "nM"},
      {"measurement": "IC50", "setting": "[12]", "result": 9.98, "unit": "nM"},
      {"measurement": "IC50", "setting": "[13]", "result": 4.82, "unit": "nM"},
      {"measurement": "IC50", "setting": "[14]", "result": "> 512", "unit": "nM"},
      {"measurement": "IC50", "setting": "[15]", "result": 33.6, "unit": "nM"},
      {"measurement": "IC50", "setting": "[16]", "result": "< 2", "unit": "nM"},
      {"measurement": "IC50", "setting": "[17]", "result": 59.1, "unit": "nM"},
      {"measurement": "IC50", "setting": "[18]", "result": 176, "unit": "nM"},
      {"measurement": "IC50", "setting": "[19]", "result": 1.39, "unit": "nM"},
      {"measurement": "IC50", "setting": "[20]", "result": 2.98, "unit": "nM"},
      {"measurement": "IC50", "setting": "[21]", "result": 22.3, "unit": "nM"},
      {"measurement": "IC50", "setting": "[22]", "result": "> 512", "unit": "nM"},
      {"measurement": "IC50", "setting": "[23]", "result": 29.3, "unit": "nM"},
      {"measurement": "IC50", "setting": "[24]", "result": 1.32, "unit": "nM"},
      {"measurement": "IC50", "setting": "[25]", "result": 4.69, "unit": "nM"},
      {"measurement": "IC50", "setting": "[26]", "result": 305, "unit": "nM"},
      {"measurement": "IC50", "setting": "[27]", "result": 70.2, "unit": "nM"},
      {"measurement": "IC50", "setting": "[28]", "result": 19.7, "unit": "nM"},
      {"measurement": "IC50", "setting": "[29]", "result": 38.3, "unit": "nM"},
      {"measurement": "IC50", "setting": "[30]", "result": "< 2", "unit": "nM"},
      {"measurement": "IC50", "setting": "[31]", "result": "< 2", "unit": "nM"},
      {"measurement": "IC50", "setting": "[32]", "result": 66.6, "unit": "nM"},
      {"measurement": "IC50", "setting": "[33]", "result": 17.8, "unit": "nM"},
      {"measurement": "IC50", "setting": "[34]", "result": 5.08, "unit": "nM"},
      {"measurement": "IC50", "setting": "[35]", "result": 32.6, "unit": "nM"},
      {"measurement": "IC50", "setting": "[36]", "result": "< 2", "unit": "nM"},
      {"measurement": "IC50", "setting": "[37]", "result": 64.6, "unit": "nM"},
      {"measurement": "IC50", "setting": "[38]", "result": 5.97, "unit": "nM"},
      {"measurement": "IC50", "setting": "[39]", "result": "< 2", "unit": "nM"},
      {"measurement": "IC50", "setting": "[40]", "result": "> 512", "unit": "nM"},
      {"measurement": "IC50", "setting": "[41]", "result": 8.04, "unit": "nM"},
      {"measurement": "IC50", "setting": "[42]", "result": 15.6, "unit": "nM"},
      {"measurement": "IC50", "setting": "[43]", "result": 12.4, "unit": "nM"},
      {"measurement": "IC50", "setting": "[44]", "result": 7.05, "unit": "nM"},
      {"measurement": "IC50", "setting": "[45]", "result": 4.58, "unit": "nM"},
      {"measurement": "IC50", "setting": "[46]", "result": "< 2", "unit": "nM"},
      {"measurement": "IC50", "setting": "[47]", "result": 36.3, "unit": "nM"},
      {"measurement": "IC50", "setting": "[48]", "result": "< 2", "unit": "nM"},
      {"measurement": "IC50", "setting": "[49]", "result": 29.8, "unit": "nM"},
      {"measurement": "IC50", "setting": "[50]", "result": 13.4, "unit": "nM"},
      {"measurement": "IC50", "setting": "[51]", "result": "> 512", "unit": "nM"},
      {"measurement": "IC50", "setting": "[52]", "result": 2.39, "unit": "nM"},
      {"measurement": "IC50", "setting": "[53]", "result": 1.57, "unit": "nM"},
      {"measurement": "IC50", "setting": "[54]", "result": 0.549, "unit": "nM"},
      {"measurement": "IC50", "setting": "[55]", "result": 4.1, "unit": "nM"},
      {"measurement": "IC50", "setting": "[56]", "result": 0.657, "unit": "nM"},
      {"measurement": "IC50", "setting": "[57]", "result": 132, "unit": "nM"},
      {"measurement": "IC50", "setting": "[58]", "result": 0.984, "unit": "nM"},
      {"measurement": "IC50", "setting": "[59]", "result": 4.25, "unit": "nM"},
      {"measurement": "IC50", "setting": "[60]", "result": 29, "unit": "nM"},
      {"measurement": "IC50", "setting": "[61]", "result": 0.855, "unit": "nM"},
      {"measurement": "IC50", "setting": "[62]", "result": 22.7, "unit": "nM"},
      {"measurement": "IC50", "setting": "[63]", "result": "< 2", "unit": "nM"},
      {"measurement": "IC50", "setting": "[64]", "result": 12.6, "unit": "nM"},
      {"measurement": "IC50", "setting": "[65]", "result": 2.41, "unit": "nM"}
    ]}
  ]
}
